In patent publication US20050282757A1, “Peptide boronic acid compounds useful in anticoagulation” (Trigen Limited, priority 2002, published 2005):
Values joined by “and” are separate entries in the source; they are usually repeats but may differ in a detail not shown here. Identical values can stand only once. “Also recorded” adds a separate entry of the source. Marks after values point to notes of the source that are not given here.

How the values were obtained:
Thrombin Time (TT) = assay: Oral administration of TGN 167 tablets to healthy male subjects (Example 47); format: in vivo, human
Method: TGN 167 tablets described above were administered via the oral route to 10 healthy male subjects as single doses (randomised double blind placebo controlled study). The group consisted of 10 healthy male volunteers, 9 of whom received active compound and one of whom received placebo. An amendment was introduced for the last panel, allowing 15 subjects (instead of 9) to receive a 600 mg dose. The interval between each dose of TGN 167 was one week minimum. The allocation of the placebo was such that each volunteer would only receive placebo once during the course of the study.
Orally administered doses were: 75 mg (one tablet), 150 mg (two tablets), 300 mg (four tablets) and 600 mg (eight tablets).

[1] = Comparative storage stability of sodium and calcium salts (Example 49); format: physicochemical; conditions: for Tri50c (w/w %, LOD corr.): corrected for loss on drying
Excerpt: In both studies the active pharmaceutical ingredient was stored in grip sealed double bags within a PE/PP screw cap closed cylinder.

thrombin time [2] = assay: Oral absorption in rat, thrombin time (Example 43); format: in vivo, male Wistar rats; conditions: 20 mg/kg oral gavage
Method: The procedure of Example 42 was followed.
The per-oral studies were performed using male Wistar rats, approximately 8 weeks of age and weighing between 250 and 300 g.
Food was withheld overnight prior to dosing and returned approximately 2 hours post-dose. Water was available adlibitum.
Each animal received a single administration of control or test article by oral gavage, using a constant dose volume of 4 mL/kg.
Individual dose volumes were based on individual body weights, obtained on the day of dosing.
(§1) Approximately 0.6 mL of blood was collected via a tail vein into 3.8% tri sodium citrate tubes approximately 48 hours prior to dosing and again at 0.5, 1, 2, 4 and 8 hours post-dose.
(§2) Plasma was prepared by centrifugation at […] for 10 minutes at 4° C. Plasma was stored frozen (nominally −20° C.) prior to analysis in an automated coagulometer.

[3] = Stability in enteric-coated hard gelatin capsules, HPLC-PDA (Example 41); format: physicochemical; conditions: for Amount of Tri50c: 10 mg content in 10 ml
Method: TRI 50c-standard (free acid) was stored in a desiccator over phosphorus pentoxide for 2 days for drying. Afterwards, the reference standard was weighed in a volumetric flask and dissolved in a mixture of acetonitrile and water (25/75 v/v %). Aliquots of the resulting solution (ST 1A) were diluted successively with water as shown in the dilution scheme of table 4.
The stored capsules of every batch at corresponding climatic condition were removed and 10 mg of the content was weighed in a 10 ml volumetric flask and dissolved in 10 ml of a mixture of acetonitrile/water (25/75 v/v %). These solutions were injected for impurity profile analysis and for quantification respectively.
The quantitative evaluation and the impurity profile analysis were performed using an HPLC-PDA method. The processing wavelength was set as 258 nm.

thrombin time [4] = assay: Intraduodenal absorption in rat, thrombin time (Examples 42 and 44); format: in vivo, male Wistar rats; parameters: Mean increase in thrombin time / Thrombin time increase: unit not given here; conditions: for Group mean thrombin time (s ± sd): 20 mg/kg intraduodenal
Method: • Place 10 mg of the relevant compound in an Eppendorf cup • Add 0.5 mL ethanol and shake for 10 minutes • Sonicate for 10 minutes • Add 1.5 mL of buffer • Shake for additional 15 minutes • Resulting target concentration: 5 mg/mL B. Intraduodenal Studies
The intraduodenal studies were performed using male Wistar rats, approximately 8 weeks of age and weighing between 250 and 300 g.
Food was withheld overnight prior to dosing and returned approximately 2 hours post-dose. Water was available ad libitum.
Animals were anaesthetised using gaseous halothane. A small incision was made in the abdomen and the duodenum located. Each animal received a single administration of control or test article by injection directly into the duodenum, using a constant dose volume of 4 mL/kg. Following administration the incision was closed using surgical staples.
Individual dose volumes were based on individual body weights, obtained on the day of dosing. Treatments employed for the study were as follows:
as §1, §2
The thrombin times determined in example 42 were analysed to determine the standard deviation for increase in thrombin time, expressed as a percentage of the mean value (this is sometimes called the ‘coefficient of variation’).

thrombin time and APTT = assay: Oral administration in dog, PK/PD (Example 45)
Method: Three female and three male dogs were used for each leg of the study. The weight range of the dogs was 8-18 kg.
The PD was measured as thrombin time and APTT using an automated coagulometer. Plasma concentrations were measured using an LCMS/MS method.
The dose was tailored on an individual basis for each dog.

[5] = capsules (no blister) 40° C./75% r.h.
[6] = capsules in blister 25° C./60% r.h.
[7] = capsules in blister 40° C./75% r.h.
[8] = individual rats dosed intraduodenally, listed as Ca Salt, hemicalcium salt, in s

SMILES: COCCC[C@H](NC(=O)[C@@H]1CCCN1C(=O)[C@@H](Cc1ccccc1)NC(=O)OCc1ccccc1)B([O-])O.COCCC[C@H](NC(=O)[C@@H]1CCCN1C(=O)[C@@H](Cc1ccccc1)NC(=O)OCc1ccccc1)B([O-])O.[Ca+2] [TRI 50c calcium salt, Cbz-(R)-Phe-(S)-Pro-(R)-Mpg-B(OH)2 hemicalcium salt]
- safety assessments (Thrombin Time (TT); oral 75, 150, 300, 600 mg): No clinically significant findings
- time after administration at which all TT had returned to baseline (Thrombin Time (TT); oral tablets): 10 h
- effect on thrombin time (TT) (Thrombin Time (TT); oral tablets 75-600 mg): dose-related increase in the Thrombin Time (TT)
- adverse clinical events (Thrombin Time (TT); study period of 24 hours, any dose): no adverse clinical events of either a general or cardiovascular nature
- Color ([1]; T = 0): white
- TRI 50c (% peak area) ([1]; T = 0): 99.4 % peak area
- Tri50c (w/w %, LOD corr.) ([1]; T = 0): 99.7 w/w %
- Appearance ([1]; T = 0, hemicalcium salt): powdery,; also recorded: odourless
- Appearance ([1]; T = 1, 25° C./60% r.h.): powdery
- Color ([1]; T = 1, 25° C./60% r.h.): white
- TRI 50c (% peak area) ([1]; T = 1, 25° C./60% r.h.): 98.3 % peak area
- Tri50c (w/w %, LOD corr.) ([1]; T = 1, 25° C./60% r.h.): 101.5 w/w %
- Appearance ([1]; T = 1, 40° C./75% r.h.): powdery
- Color ([1]; T = 1, 40° C./75% r.h.): white
- TRI 50c (% peak area) ([1]; T = 1, 40° C./75% r.h.): 95.2 % peak area
- Tri50c (w/w %, LOD corr.) ([1]; T = 1, 40° C./75% r.h.): 100.6 w/w %
- Appearance ([1]; T = 1, −20° C.): powdery
- Color ([1]; T = 1, −20° C.): white
- TRI 50c (% peak area) ([1]; T = 1, −20° C.): 99.1 % peak area
- Tri50c (w/w %, LOD corr.) ([1]; T = 1, −20° C.): 102.7 w/w %
- Appearance ([1]; T = 3, 25° C./60% r.h.): powdery
- Color ([1]; T = 3, 25° C./60% r.h.): white
- TRI 50c (% peak area) ([1]; T = 3, 25° C./60% r.h.): 97.5 % peak area
- Tri50c (w/w %, LOD corr.) ([1]; T = 3, 25° C./60% r.h.): 104.3 w/w %
- Appearance ([1]; T = 3, 40° C./75% r.h.): powdery
- Color ([1]; T = 3, 40° C./75% r.h.): white
- TRI 50c (% peak area) ([1]; T = 3, 40° C./75% r.h.): 71.2 % peak area
- Tri50c (w/w %, LOD corr.) ([1]; T = 3, 40° C./75% r.h.): 82.0 w/w %
- Appearance ([1]; T = 3, −20° C.): powdery
- Color ([1]; T = 3, −20° C.): white
- TRI 50c (% peak area) ([1]; T = 3, −20° C.): 99.2 % peak area
- Tri50c (w/w %, LOD corr.) ([1]; T = 3, −20° C.): 103.0 w/w %
- TRI 50c (% peak area) ([1]; T = 12, 25° C./60% r.h.): 96.9 % peak area
- Tri50c (w/w %, LOD corr.) ([1]; T = 12, 25° C./60% r.h.): 94.8 w/w %
- Group mean thrombin times (s ± sd) (thrombin time [2]; 0.5 hour): 25.9 ± 3.05 s
- Group mean thrombin times (s ± sd) (thrombin time [2]; 1 hour): 25.7 ± 1.94 s
- Group mean thrombin times (s ± sd) (thrombin time [2]; 2 hour): 24.3 ± 0.98 s
- Group mean thrombin times (s ± sd) (thrombin time [2]; 4 hour): 25.0 ± 1.31 s
- Group mean thrombin times (s ± sd) (thrombin time [2]; 8 hour): 22.9 ± 3.46 s
- Group mean thrombin times (s ± sd) (thrombin time [2]; −48 hour (pre-dose)): 23.4 ± 1.25 s
- Benzaldeh. % Area in impurity profile [3, 5]: 3.64 % Area
- Imp.I % Area in impurity profile [3, 5]: 0.84 % Area
- Amount of Tri50c [3, 5]: 780.097 µg/mL
- Benzaldeh. % Area in impurity profile [3, 6]: 1.29 % Area
- Amount of Tri50c [3, 6]: 930.903 µg/mL
- Benzaldeh. % Area in impurity profile [3, 7]: 2.37 % Area
- Amount of Tri50c [3, 7]: 786.223 µg/mL
- Purity (HPLC % Area) T1 ([3]; capsules in blister, 1.5 month 25° C./60% r.h., hemicalcium salt): 98.0 HPLC % Area
- Purity (HPLC % Area) T1 ([3]; capsules in blister, 1.5 month 25° C./60% r.h., listed as TRI50C Ca Salt, hemicalcium salt): 98.02 HPLC % Area
- Purity (HPLC % Area) T1 ([3]; capsules in blister, 1.5 month 40° C./75% r.h., hemicalcium salt): 97.2 HPLC % Area
- Purity (HPLC % Area) T1 ([3]; capsules in blister, 1.5 month 40° C./75% r.h., listed as TRI50C Ca Salt, hemicalcium salt): 97.19 HPLC % Area
- Purity (HPLC % Area) T1 ([3]; capsules without blister, 1.5 month 40° C./75% r.h., hemicalcium salt): 95.0 HPLC % Area
- Purity (HPLC % Area) T1 ([3]; capsules without blister, 1.5 month 40° C./75% r.h., listed as TRI50C Ca Salt, hemicalcium salt): 94.96 HPLC % Area
- Purity (HPLC % Area) T0 ([3]; purity of the batch before storage, hemicalcium salt): 99.2^2) HPLC % Area and 99.2^2 HPLC % Area
- Group mean thrombin time (s ± sd) (thrombin time [4]; 0.5 hour): 42.0 ± 6.74 s
- Group mean thrombin time (s ± sd) (thrombin time [4]; 1 hour): 34.0 ± 1.89 s
- Group mean thrombin time (s ± sd) (thrombin time [4]; 2 hour): 22.6 ± 5.10 s
- Group mean thrombin time (s ± sd) (thrombin time [4]; 4 hour): 24.4 ± 2.41 s
- Group mean thrombin time (s ± sd) (thrombin time [4]; 8 hour): 22.4 ± 1.73 s
- Group mean thrombin time (s ± sd) (thrombin time [4]; −48 hour (pre-dose)): 21.6 ± 1.77 s
- Mean increase in thrombin time (thrombin time [4]; 0.5 h minus 0 h, intraduodenal): 20.50
- Thrombin time, 0 h (thrombin time [4]; [8]): 21.97 and 18.75 and 23.57 and 21.57
- Thrombin time, 0.5 h (thrombin time [4]; [8]): 35.32 and 45.98 and 37.27 and 49.30
- Thrombin time increase (thrombin time [4]; individual rats, 0.5 h minus 0 h, listed as Ca Salt, hemicalcium salt): 13.35 and 27.23 and 13.70 and 27.73
- mean thrombin clotting time 8 hours post dose (thrombin time and APTT): 20.2 s
- time of peak thrombin time post dose (thrombin time and APTT): three hours post dose
- mean APTT at peak (thrombin time and APTT; 3 hours following administration, from 14.5 seconds): 18 s
- mean thrombin clotting time at peak (C max) (thrombin time and APTT; base line 15 seconds (calcium salt), 15.4 seconds (TRI 50c)): 80.5 s
- tolerance (thrombin time and APTT; enterically coated gelatine capsules): tolerated well with no adverse events
- estimated bioavailability in some animals (thrombin time and APTT; estimated from thrombin clotting times): ≤ 50%
- mean estimated bioavailability (thrombin time and APTT; estimated from thrombin clotting times, including two lower responders): 25%
- peak thrombin clotting times achieved by all dogs (thrombin time and APTT; individual dogs): up to 148 seconds
